Source: US20230277553A1, “THERAPEUTIC COMPOSITION OF CURE-PRO COMPOUNDS FOR TARGETED DEGRADATION OF BET DOMAIN PROTEINS, AND METHODS OF MAKING AND USAGE” (CORNELL UNIVERSITY, priority 2020, published 2023)
“Also recorded” adds a separate entry of the source.

Experiments:
Format in all cases: cell-based
BRD4 [1] = biological target: T1, BRD4 (Homo sapiens, UniProt O60885); assay: Summary of BRD4 degradation by CURE-PRO pairs, estimated from Western Blot or WES (Proteinsimple); set-up: endogenous in cells; details: for Degradation of BRD4 in combination with CRBN ligand [drawing 372] / Degradation of BRD4 in combination with CRBN ligand [drawing 370] / Degradation of BRD4 in combination with CRBN ligand [drawing 371]: Table 1; for Degradation of BRD4 in combination with CRBN ligand [drawing 372]: third drawing (8066); for Degradation of BRD4 in combination with CRBN ligand [drawing 370]: aromatic 1,2-diol- or hindered cis-1,2-diol-containing CRBN ligand, first drawing (8046); for Degradation of BRD4 in combination with CRBN ligand [drawing 371]: second drawing (8047); for Degradation of BRD4 in combination with CRBN ligand [drawing 407]: Table 4, aryl-boronic acid-containing CRBN ligand, first drawing (by text: 8048)
Description: A black check mark indicates efficacy of 30% to 70% or higher protein degradation.

BRD4 [2] = biological target: T1, BRD4; assay: CURE-PRO-mediated BRD4 degradation, Western blot, HeLa cells; set-up: endogenous in cells; host or cells: HeLa; details: 24 h; for BRD4 degradation, co-treatment with CRBN ligand 8046: 1:1 with 8046, 10 μM each; for BRD4 degradation, co-treatment with CRBN ligand 8066: 1:1 with 8066, 10 μM each (BRD-E10: 10 and 100 μM); for BRD4 degradation, BRD ligand alone: BRD monomer alone; for BRD4 degradation, co-treatment with CRBN ligand 8048: 1:1 with 8048, 1-10 μM each; for BRD4 degradation, co-treatment with CRBN ligand 8049: 1:1 with 8049, 1-10 μM each
Procedure: (§1) All cell lines were purchased from ATCC or DSMZ and grown at 37° C. with 5% CO2. Human HeLa cells were cultured in complete growth medium (Dulbecco's modified Eagle's medium (DMEM) supplemented with 10% FBS); MCF7 cells were cultured in complete growth medium (Dulbecco's modified Eagle's medium (DMEM) supplemented with 10% FBS and 0.01 mg/ml human recombinant insulin (Sigma Aldrich); Namalwa and MOLM-13 cells were cultured in complete growth medium (RPMI 1640 medium supplemented with 10% FBS); MV-4-11 were cultured in complete growth medium (Iscove's Modified Dulbecco's medium, supplemented with 10% FBS); HCT116 cells were cultured in complete growth medium (McCoy's 5a Medium supplemented with 10% FBS). For cellular degradation of BRD4 studies, cells were seeded in a 12-well plate at 70-80% confluency, allowed to attach overnight, and incubated with the indicated compounds for the indicated time. When indicated, a 15-minute pretreatment with 10 μM pomalidomide, 10 μM VHL298, 10 μM Nutlin3a, 1 μM MG-132 or 1 μM Carfilzomib was performed before the addition of CURE-PROs. For washout studies, after CURE-PRO treatment, media was aspirated and incubated with complete medium for the indicated time before lysis.
Anti-BRD4 (13440, 1:1,000 dilution for Western Blot and 1:25 dilution for ProteinSimple); Anti-BRD2 (5848 1:1,000 dilution for Western Blot and 1:25 dilution for ProteinSimple); β-Actin (3700, 1:2,000 dilution for Western Blot), β-Actin (4970, 1:50 dilution for ProteinSimple) anti-mouse IgG-HRP, and anti-rabbit IgG-HRP antibodies were purchased Cell Signaling Technology. Anti-GAPDH (600-401-A33, 1:100 dilution for ProteinSimple) was purchased from Rockland Immunochemicals, Inc. Anti-BRD3 (sc-81202, 1:200 dilution for Western Blot) was purchased from Santa Cruz Biotechnology.
HeLa, MCF7, or HCT116 cells (2.5-3×10^6) were treated for 24 hours with the indicated compounds solubilized in DMSO. The cells were washed in ice-cold PBS and were then lysed in RIPA lysis buffer (150 mM NaCl, 5 mM EDTA, 1% NP-40, 0.5% sodium deoxycholate, 0.1% SDS, 50 mM Tris, pH 8.0.) with Roche protease inhibitor complete cocktail and phosphatase inhibitors (10 mM sodium fluoride, 10 mM sodium pyrophosphate, 1 mM sodium orthovanadate and 20 mM β-glycerophosphate). The total protein concentrations were determined by Bradford Protein Assay and 10-20 μg of protein was loaded onto 4-15% Tris-Glycine gradient gels (Biorad). After standard gel electrophoresis, the separated proteins were transferred to PVDF membrane by wet transfer. The immunoblots were then blocked for 1 hour in 5% skim milk in TBST or 5% BSA in TBST, according to manufacturer's instructions, before an overnight incubation at 4° C. with indicated antibodies and membranes. Membranes were then incubated with the appropriate horseradish peroxidase-conjugated secondary antibodies (1:5,000 dilution) for 1 h at room temperature and the bands were visualized using the Clarity Max Western ECL Substrate (Biorad) and the ChemiDoc Imaging System (Biorad). Signal was detected with ECL Western Blotting Substrate (Pierce) and X-ray film processed with a Konica SRX-101 X-ray film processor or captured by Bio-Rad's Chemidoc Imaging system.
HeLa cells (2.5×106) were treated for 24 hours with the sample compounds solubilized in DMSO. Compounds were added at 1-10 μM each. Standardized protein samples were electrophoresed and imaged as described in the immunoblotting description above. FIGS. 6-18 depicts the CURE-PRO-mediated BRD4 degradation for BRD monomers (JQ1 derivatives comprising of catechol linkers), and CRBN ligands, 8048 and 8049 (pomalidomide derivatives comprising boronic acid linkers) combined in a 1:1 ratio.
HeLa cells (2.5×106) were treated for 24 hours with the compounds solubilized in DMSO. The compounds were added at 10 μM each. Standardized protein samples were electrophoresed and imaged as described in the immunoblotting section above. […]

BRD4 [3] = biological target: T1, BRD4; assay: CURE-PRO-mediated BRD4 degradation with MDM2 ligands, WES (ProteinSimple), HCT116 cells; set-up: endogenous in cells; details: HCT116, 24 h, WES; for BRD4 degradation, in combination with MDM2 ligand 8313: 1:1 with 8313, 1-10 μM each; for BRD4 degradation, in combination with MDM2 ligand 8314: 1:1 with 8314, 1-10 μM each
Procedure: as §1
WES Simple analysis was performed on WES system (ProteinSimple-Biotechne) according to the manufacturer's instructions. Total protein concentrations of cell lysates were determined by the Pierce BCA kit (Thermo Fisher). 3 μL of 0.3 μg/μL of the protein lysate was loaded onto a 12- to 230-kDa WES assay plate (ProteinSimple) where 300 nL sample was withdrawn through a capillary, subjected to electrophoretic separation of proteins by size, and followed by the simultaneous, HRP-based detection of proteins using the Anti-Rabbit Detection Module (Proteinsimple: #DM-001). The electropherograms were checked then the automatic peak detection was manually corrected if it was required.
(§2) HCT116 cells (3×10^6) were treated for 24 hours with the compounds solubilized in DMSO. Compounds were added at 1 μM-10 μM each. Standardized protein samples were electrophoresed and imaged as described in the WES ProteinSimple section above. FIGS. 59, 60, and 61 depict the concentration-dependence of CURE-PRO-mediated BRD4 degradation using MDM2 ligands.
as §2, with “62” for “59, 60,”, “63” for “61”
HCT116 cells (3×10^6) were treated for 24 hours with the compounds solubilized in DMSO. CURE-PRO monomers were added at 10 μM each and the proteasomal inhibitors at 1 μM. Standardized protein samples were electrophoresed and imaged as described in the WES ProteinSimple section above. FIG. 68 depicts the dependence of the proteasome for CURE-PRO-mediated BRD4 degradation.

Compound	Degradation of BRD4 in combination with CRBN ligand [drawing 372] (BRD4 [1])	Degradation of BRD4 in combination with CRBN ligand [drawing 370] (BRD4 [1])	Concentration at which BRD4 degradation is observed, co-dosed with 8046 (BRD4 [2]; 1:1 with 8046)	BRD4 degradation, co-treatment with CRBN ligand 8046 (BRD4 [2]; Western blot)	Concentration at which BRD4 degradation is observed, co-dosed with 8046 (BRD4 [2]; 1:1 with 8046, tested 1 nM-1 μM each)	BRD4 degradation, co-treatment with CRBN ligand 8066 (BRD4 [2]; Western blot)	BRD4 degradation, BRD ligand alone (BRD4 [2]; Western blot)	BRD4 degradation, in combination with MDM2 ligand 8313 (BRD4 [3])	BRD4 degradation, in combination with MDM2 ligand 8314 (BRD4 [3])	Degradation of BRD4 in combination with CRBN ligand [drawing 371] (BRD4 [1])	Degradation of BRD4 in combination with VHL ligand [drawing 397] (BRD4 [1]; Table 3, aromatic 1,2-diol-containing VHL ligand, second drawing (8305))	BRD4 degradation, co-treatment with CRBN ligand 8047 (BRD4 [2]; 1:1 with 8047, 10 μM each, Western blot)	Concentration from which BRD4 degradation is observed, co-dosed with 8047 (BRD4 [2]; 1:1 with 8047, tested 1 nM-1 μM each)	Degradation of BRD4 in combination with CRBN ligand [drawing 407] (BRD4 [1])	BRD4 degradation, co-treatment with CRBN ligand 8048 (BRD4 [2]; Western blot)	BRD4 degradation, co-treatment with CRBN ligand 8049 (BRD4 [2]; Western blot)
COc1ccc2c(c1)C(c1ccc(Cl)cc1)=N[C@@H](CC(=O)NCCCCCNC(=O)c1cccc(B(O)O)c1)c1nnc(C)n1-2 [BRD-E8]	✓ (A black check mark indicates efficacy of 30% to 70% or higher protein degradation)	✓ (A black check mark indicates efficacy of 30% to 70% or higher protein degradation)	1 µM	causes degradation of BRD4; also recorded: Degradation is noted	0.1 µM	causes degradation of BRD4; also recorded: Degradation is noted	no change in expression	had no effect on BRD4 protein levels	caused partial loss of the BRD4 protein; also recorded: Degradation is observed	–	–	–	–	–	–	–
CCNC(=O)C[C@@H]1N=C(c2ccc(Cl)cc2)c2cc(OCCCCCCNC(=O)c3ccc(B(O)O)cc3)ccc2-n2c(C)nnc21 [BRD-E79, (4-((6-(((4S)-6-(4-chlorophenyl)-4-(2-(ethylamino)-2-oxoethyl)-1-methyl-4H-benzo[f][1,2,4]triazolo[4,3-a][1,4]diazepin-8-yl)oxy)hexyl)carbamoyl)phenyl)boronic acid]	✓ (A black check mark indicates efficacy of 30% to 70% or higher protein degradation)	✓ (A black check mark indicates efficacy of 30% to 70% or higher protein degradation)	–	causes degradation of BRD4; also recorded: Degradation is noted	–	causes degradation of BRD4; also recorded: Degradation is noted	no change in expression	caused BRD4 protein degradation at 1 and 10 μM; also recorded: Degradation of BRD4 is observed	no protein loss was observed	✓ (A black check mark indicates efficacy of 30% to 70% or higher protein degradation)	–	–	–	–	–	–
COc1ccc2c(c1)C(c1ccc(Cl)cc1)=N[C@@H](CC(=O)NCCc1ccc(B(O)O)cc1)c1nnc(C)n1-2 [BRD-E14, (4-(2-(2-((4S)-6-(4-chlorophenyl)-8-methoxy-1-methyl-4H-benzo[f][1,2,4]triazolo[4,3-a][1,4]diazepin-4-yl)acetamido)ethyl)phenyl)boronic acid]	–	–	–	–	–	–	–	–	caused partial loss of the BRD4 protein; also recorded: Degradation is observed	✓ (A black check mark indicates efficacy of 30% to 70% or higher protein degradation)	✓ (A black check mark indicates efficacy of 30% to 70% or higher protein degradation)	causes degradation of BRD4; also recorded: Degradation is noted	–	–	–	–
CCNC(=O)C[C@@H]1N=C(c2ccc(Cl)cc2)c2cc(OCCNC(=O)c3cccc(B(O)O)c3)ccc2-n2c(C)nnc21 [BRD-E21, (3-((2-(((4S)-6-(4-chlorophenyl)-4-(2-(ethylamino)-2-oxoethyl)-1-methyl-4H-benzo[f][1,2,4]triazolo[4,3-a][1,4]diazepin-8-yl)oxy)ethyl)carbamoyl)phenyl)boronic acid]	–	–	–	–	–	–	no change in expression	had no effect on BRD4 protein levels	caused partial loss of the BRD4 protein; also recorded: Degradation is observed	✓ (A black check mark indicates efficacy of 30% to 70% or higher protein degradation)	–	–	≥ 10 nM	–	–	–
COc1ccc2c(c1)C(c1ccc(Cl)cc1)=N[C@@H](CC(=O)NCCNC(=O)c1ccc(O)c(O)c1)c1nnc(C)n1-2 [BRD-N1]	–	–	–	–	–	–	no degradation of BRD4	–	–	–	–	–	–	✓ (A black check mark indicates efficacy of 30% to 70% or higher protein degradation)	causes degradation of BRD4; also recorded: Degradation is noted	no evidence of BRD4 degradation
COc1ccc2c(c1)C(c1ccc(Cl)cc1)=N[C@@H](CC(=O)NCCCCNC(=O)c1ccc(O)c(O)c1)c1nnc(C)n1-2 [BRD-N5]	–	–	–	–	–	–	no degradation of BRD4	–	–	–	–	–	–	✓ (A black check mark indicates efficacy of 30% to 70% or higher protein degradation)	causes degradation of BRD4; also recorded: Degradation is noted	no evidence of BRD4 degradation
